From patent US8690874B2, “Composition and process for bone growth and repair” (Zimmer Orthobiologics, Inc., priority 2000, dated 2014) come the findings set out here.

In data set [1] the test system is subcutaneous rat implant model. In words: Subcutaneous rat implant model, collagen/GFm sponges supplemented with calcium phosphates (Example 3/5). It counts as in vivo. The following applies: for Average Mineral Mass / Average Explant Mass / Average Histology Score [0-5]: inter-animal average; for Average Mineral Mass: ash weight; for Average Explant Mass: collagen 7 mg + GFm 10 μg, additive 7 mg (50 wt. %); for Average Histology Score [0-5] / Histology score, Direct Comparison Averages [0-5]: scoring of Table 7; for Explant mass, Direct Comparison Averages / Mineral mass, Direct Comparison Average / Histology score, Direct Comparison Averages [0-5]: intra-animal comparison subset; for bone quality and maturity in histological sections: photomicrographs FIG. 15, H&E/Von Kossa, toluidine blue; for Explant mass, Direct Comparison Δwt. % / Histology score, Direct Comparison [%] / Mineral mass, Direct Comparison Δwt. %: relative to intra-animal collagen/GFm control; for effect on explant and mineral mass: versus collagen controls / other compositions. The procedure: The advantages of the rat model for product evaluation include an accelerated rate of bone induction. Visible evidence of mineralization appears in the implant within several days (˜10), with typical experiments lasting between 14 and 21 days. The testing protocol involved implantation of porous collagen (bovine tendon Type 1, 7 mg, 96 vol. % porosity) samples containing a natural mixture of bovine, osteoinductive proteins (GFm, 10 μg). […] Samples were implanted in four subcutaneous sites including the upper quadrants of the abdomen (sites 1, 2) and the upper quadrants of the dorsal thorax (sites 6, 7). The osteoinductive differences between controls and calcium phosphate supplemented samples [7 mg, 50 wt. %] were assessed using three standard test protocols: histological tissue analysis and mineral composition via x-ray and ash weight analysis (Intermedics Orthopedics/Denver, Inc. Histology protocol STM 009; Intermedics Orthopedics/Denver, Inc. Alkaline phophatase protocol STM 0024, 0026).
Samples were assessed in comparison to two different control sample populations, including: collagen sponges and collagen/GFm sponges supplemented with 50 wt % devitalized bone matrix (DVBM) additives. The collagen/GFm control samples were used as a reference for a baseline osteoinductive response. A calcium phosphate additive was considered detrimental if it either reduced the explant or mineral mass values or if it negatively influenced bone maturation. […] These samples were prepared as an alternative for demineralized bone matrix (DBM) additives. Demineralized bone matrix provides both an ideal osteoconductive matrix for cellular invasion and bone mineralization and a pooled concentration of osteoinductive proteins.
ANOVA was performed without data replications turning the analysis into an expanded pool Student-T test. Statistical significance was predicted using α<0.05. […] Compositions that had no significant influence on mass are indicated in plain text. Compositions that stimulated a statistically significant improvement in mass are indicated in bold text [Tables 5 and 6].
The quality and skeletal maturity of produced bone was assessed through histological microscopic analysis of thin, stained tissue sections. […] Thin sections (4 μm) from the explant midlines were obtained with a microtome. One section was stained with hematoxylin & eosin (H&E) and one was stained with toluidine blue to highlight important cellular details. The H&E sections were counterstained with silver nitrate (Von Kossa technique) to highlight mineralized tissue components. The histological sections were scored for quality and maturity using a scoring system, outlined in Table 7, previously developed by Sulzer Biologics according to STM-021. […]

Data set [2] in a line: pH buffering potential of calcium salts. In kind it is physicochemical.
A short description of data set [3]: Equilibrium solubility of calcium and phosphate ions from calcium phosphate salts. It counts as physicochemical.
The mark [4] stands for this setting: equilibrium solubility of the salt.

“And” between values parts separate entries of the source, which are not always exact repeats. Equal entries are not always repeated. “Also recorded” adds a separate entry of the source. Where two headings read alike, the source gives them in different places.

In the case of `O=P([O-])([O-])OP(=O)([O-])[O-].[Ca+2].[Ca+2]` [2CaO•P2O5•2H2O (CP), calcium pyrophosphate], in data set [1], the “Average Mineral Mass” value turned out to be 20.8 mg; the “Average Explant Mass” value is 126.2 mg; the “Average Histology Score [0-5]” value is on record as 2.3; the “Explant mass, Direct Comparison Averages” value is 170.3 mg. Moreover, in data set [1], the “Mineral mass, Direct Comparison Average” value is 31.5 mg; the “Histology score, Direct Comparison Averages [0-5]” value amounted to 2.3; the “bone quality and maturity in histological sections” value is on record as “comparatively reduced in maturity but were greater than control samples”; the “Explant mass, Direct Comparison Δwt. %” value is reported as “+99.6% wt. %”. In addition, in data set [1], the “Histology score, Direct Comparison [%]” value is “+11.1%”; the “Mineral mass, Direct Comparison Δwt. %” value was “+163.0% wt. %”; the “effect on explant and mineral mass” value was “appreciably enhanced; also recorded: significantly enhanced explant and mineral mass values”. The “improvement in histological score” value in data set [1] (intra-animal, relative to collagen control) is given as “+163 wt. %”. In data set [1] (listed as 2CaO.P2O5), the “Explant mass, Direct Comparison Δwt. %” value was “+99.6 wt. %” and the “Mineral mass, Direct Comparison Δwt. %” value is given as “+263 wt. %”. The “histological score / osteoinductive performance, statistical comparison” value in data set [1] (α<0.05) is on record as “Statistically superior improvements in histological score”.

Consider `O=P([O-])([O-])[O-].O=P([O-])([O-])[O-].[Ca+2].[Ca+2].[Ca+2]` [3CaO•P2O5 (α-TCP), tricalcium phosphate], for which, in data set [1], the “Average Mineral Mass” value is on record as 6.5 mg; the “Average Explant Mass” value came out at 39.5 mg; the “Average Histology Score [0-5]” value came out at 1.1; the “Explant mass, Direct Comparison Averages” value worked out at 58.7 mg. Also, in data set [1], the “Mineral mass, Direct Comparison Average” value is on record as 9.4 mg; the “Histology score, Direct Comparison Averages [0-5]” value stood at 1.3; the “Explant mass, Direct Comparison Δwt. %” value is listed as −42.9% wt. %; the “Histology score, Direct Comparison [%]” value is −35.1%. Besides, in data set [1], the “Mineral mass, Direct Comparison Δwt. %” value is on record as −28.3% wt. %.

In the case of `O=P([O-])([O-])[O-].O=P([O-])([O-])[O-].[Ca+2].[Ca+2].[Ca+2]` [3CaO•P2O5 (β-TCP), tricalcium phosphate], in data set [1], the “Average Mineral Mass” value is 8.1 mg; the “Average Explant Mass” value is on record as 80.1 mg; the “Average Histology Score [0-5]” value was determined as 1.3; the “Explant mass, Direct Comparison Averages” value is on record as 71.6 mg. In addition, in data set [1], the “Mineral mass, Direct Comparison Average” value is 5.7 mg; the “Histology score, Direct Comparison Averages [0-5]” value came to 1.3; the “Explant mass, Direct Comparison Δwt. %” value is given as −26.3% wt. %; the “Histology score, Direct Comparison [%]” value is reported as −23.9%. The “Mineral mass, Direct Comparison Δwt. %” value in data set [1] was −31.6% wt. %.

As to `O=C([O-])[O-].[Ca+2]` [CaCO3 (aragonite), calcium carbonate], in data set [1], the “Average Mineral Mass” value is reported as 10.4 mg; the “Average Explant Mass” value was 69.4 mg; the “Average Histology Score [0-5]” value worked out at 1.0; the “Explant mass, Direct Comparison Averages” value is 88.6 mg. Also, in data set [1], the “Mineral mass, Direct Comparison Average” value was 14.5 mg; the “Histology score, Direct Comparison Averages [0-5]” value is given as 1.0; the “Explant mass, Direct Comparison Δwt. %” value is recorded as −27.3% wt. %; the “Histology score, Direct Comparison [%]” value was −63.9%. Besides, in data set [1], the “Mineral mass, Direct Comparison Δwt. %” value is “+3.8% wt. %”.

As for `O=C([O-])[O-].[Ca+2]` [CaCO3 (calcite), calcium carbonate], in data set [1], the “Average Mineral Mass” value came to 7.9 mg; the “Average Explant Mass” value worked out at 67.4 mg; the “Average Histology Score [0-5]” value is recorded as 1.0; the “Explant mass, Direct Comparison Averages” value is given as 73.1 mg. Besides, in data set [1], the “Mineral mass, Direct Comparison Average” value turned out to be 8.1 mg; the “Histology score, Direct Comparison Averages [0-5]” value came to 1.0; the “Explant mass, Direct Comparison Δwt. %” value was −28.0% wt. %; the “Histology score, Direct Comparison [%]” value is given as −58.3%. Moreover, the “Mineral mass, Direct Comparison Δwt. %” value in data set [1] is recorded as −3.2% wt. %.

As for `O=C([O-])[O-].[Ca+2]` [calcium carbonates, calcium carbonate], in data set [1], the “bone quality and maturity in histological sections” value is listed as “comparatively reduced”.

For “hydroxyapatite [3.33CaO.P2O5(OH)2 (Calcitek)]”, in data set [1], the “Explant mass, Direct Comparison Δwt. %” value is reported as “+44.1 wt. %” and the “Mineral mass, Direct Comparison Δwt. %” value is “+279.6 wt. %”.

For the compound hydroxyapatite [3.33CaO•P2O5 (HA-am)], in data set [1], the “Average Mineral Mass” value was 26.5 mg and 29.4 mg; the “Average Explant Mass” value is 129.9 mg and 117.9 mg; the “Average Histology Score [0-5]” value is 1.3 and 1.4; the “Explant mass, Direct Comparison Averages” value was 120.3 mg and 140.6 mg. Moreover, in data set [1], the “Mineral mass, Direct Comparison Average” value is 27.1 mg and 30.4 mg; the “Histology score, Direct Comparison Averages [0-5]” value was 1.2 and 1.7.

On to hydroxyapatite [3.33CaO•P2O5 (HA-px)], for which, in data set [1], the “Average Mineral Mass” value came to 19.8 mg; the “Average Explant Mass” value was 113.5 mg; the “Average Histology Score [0-5]” value came to 1.4; the “Explant mass, Direct Comparison Averages” value is 124.7 mg. In addition, in data set [1], the “Mineral mass, Direct Comparison Average” value came out at 21.9 mg; the “Histology score, Direct Comparison Averages [0-5]” value was 2.0; the “Explant mass, Direct Comparison Δwt. %” value is “+4.5% wt. %”; the “Histology score, Direct Comparison [%]” value was −26.7%. The “Mineral mass, Direct Comparison Δwt. %” value in data set [1] was “+74.3% wt. %”.

For hydroxyapatite [Ca5(PO4)3(OH) (HA)], in data set [2], the “pH (buffering potential of the salt)” value was ~8.5 and ~9. The “pH (buffering potential of the salt)” value in data set [2] (listed as Hydroxyapatites) is about 8. Besides, in data set [1], the “bone quality and maturity in histological sections” value was “negative effect on bone ossicle maturation; also recorded: comparatively reduced”; the “effect on explant and mineral mass” value is given as “appreciably enhanced”. In addition, the “Insoluble fraction [200 mg/cc]” value in data set [3] (200 mg/cc) is listed as 99.9999 wt. %. Further, in data set [3] (setting [4]), the “Equilibrium [Ca^2+]” value was 2.2 µM and the “Equilibrium [PO4^3−]” value stood at 1.3 µM.
